“Also recorded” adds a separate entry of the source.
Key:
Assay type in all cases: cell-based
[1] = tested on: Panc-1 and COS-7 cells; assay: In vitro transfection of LMDs, overall statements without a single cell line; conditions: cell line not stated or across Panc-1 and COS-7 cells
Procedure: Purity of the lipids was checked by TLC or HPLC. All lipids were stored as stock solutions in anhydrous CH2Cl2, at concentrations of either 5 mg/ml or 10 mg/ml, at −80° C., under Ar. In order to prepare cationic liposomes, lipids were added to a round-bottomed flask, via syringe, under Ar, and further freshly distilled CH2Cl2 was added, if necessary, to give a concentration of around 2.5 mg/ml. Then, 4 mM HEPES pH 7.0 (1 ml) was added, and the biphasic system was swirled to mix. A liposomal suspension was created by removing the organic solvent under reduced pressure at 25° C., followed by sonication for 2-5 min. in a water bath sonicator. Doubly-distilled water was added, if necessary, to return the total volume to 1 ml. All liposomal solutions were prepared at a final concentration of 5 mg/ml. […]
Liposomes were extruded (Extruder, Northern Upids, Inc., Vancouver, BC, Canada) by passing through two 100 nm polycarbonate filters (Isopore™ Membrane Filters, Millipore (UK) Ltd., Watford, Hertfordshire, UK) ten times. For each preparation, the size distribution of liposomes was measured by photon correlation spectroscopy (PCS) (Coulter® N4 Plus Submicron Particle Sizer, Beckman Coulter, High Wycombe, Buckinghamshire, UK). […]

[2] = tested on: COS-7 cells; assay: Transfection of COS-7 cells with LMDs (liposome:mu:DNA), β-galactosidase reporter assay; conditions: LMDs of pure DOTAP or DOTAP-analogue liposomes, FIG. 20
Procedure: (§1) Purity of the lipids was checked by TLC or HPLC. All lipids were stored as stock solutions in anhydrous CH2Cl2, at concentrations of either 5 mg/ml or 10 mg/ml, at −80° C., under Ar. In order to prepare cationic liposomes, lipids were added to a round-bottomed flask, via syringe, under Ar, and further freshly distilled CH2Cl2 was added, if necessary, to give a concentration of around 2.5 mg/ml. Then, 4 mM HEPES pH 7.0 (1 ml) was added, and the biphasic system was swirled to mix. A liposomal suspension was created by removing the organic solvent under reduced pressure at 25° C., followed by sonication for 2-5 min. in a water bath sonicator. Doubly-distilled water was added, if necessary, to return the total volume to 1 ml. All liposomal solutions were prepared at a final concentration of 5 mg/ml. The pH of the liposomal suspension was checked by pH Boy (Camlab Ltd., Over, Cambridgeshire, UK) and adjusted to pH 7.0±0.1 with concentrated aqueous solutions of HCl and NaOH.
(§2) Liposomes were extruded (Extruder, Northern Upids, Inc., Vancouver, BC, Canada) by passing through two 100 nm polycarbonate filters (Isopore™ Membrane Filters, Millipore (UK) Ltd., Watford, Hertfordshire, UK) ten times. For each preparation, the size distribution of liposomes was measured by photon correlation spectroscopy (PCS) (Coulter® N4 Plus Submicron Particle Sizer, Beckman Coulter, High Wycombe, Buckinghamshire, UK). For phospholipid-containing liposomes, phospholipid concentrations were checked by the Stewart assay.^23 In each case, a final lipid concentration of 4.7±0.1 mg/ml was observed. For non-phospholipid containing liposomes, lipid loss was also inevitable on extrusion. For all fast-extruding liposomal suspensions, total lipid concentration was assumed to be 4.7 mg/ml. For slower extrusions, total lipid concentrations were assumed to be 4.3 mg/ml. Very slowly extruding liposomes were extruded three times only and assumed to be 4.7 mg/ml.
(§3) Plasmid DNA containing the β-galactosidase gene (pNGVL1-nt-beta-gal; 7.53 kbp) was stored as frozen aliquots at −80° C., at a concentration of 1.2 mg/ml; μ (mu) peptide (adenoviral core peptide [H2N-Met-Arg-Arg-Ala-His-His-Arg-Arg-Arg-Arg-Ala-Ser-His-Arg-Arg-Met-Arg-Gly-Gly-CO2H]) was synthesised as described previously,^7 and maintained at 4° C. in aliquots of 1 mg/ml. Mu-DNA complexes were made by adding plasmid DNA to mu in 4 mM HEPES at a ratio of 1:0.6 (w/w) with fast vortexing. LMDs were prepared by complexing mu-DNA particles with cationic liposomes (as prepared above) in a ratio of 1:12 (w/w), such that all LMDs for all formulations were substantially cationic. For each preparation, the size distribution of LMDs was measured by PCS.
COS-7 cells were maintained in DMEM/10% FCS/1% penicillin-streptomycin (Gibco™) at 37° C./5% CO2 in a humidified atmosphere. Twenty-four hours prior to transfection, 10 000 cells per well were seeded in 48-well microtitre plates (Coming Costar) in 500 μl medium. Plasmid DNA and Transfast™ controls were prepared as above. 5 μl (0.5 μg DNA) of LMD formulation was added to each well. All experiments were performed in quadruplicate. The plate was swirled for 30 s, and incubated for 1 h at 37° C. Medium was then removed, and 500 μl of fresh medium was added. The cells were incubated at 37° C. for a further 24 h.
Medium was aspirated from the wells and the cell layer was washed with phosphate buffered saline (PBS) (Gibco™). The cells of each well were lysed in 150 μl lysis reagent (prepared according to the supplier's protocol; β-Gal Reporter Gene Assay, Roche Diagnostics GmbH, D-68305 Mannheim, Germany) at room temperature for 30 min. After lysis, […], 50 μl and 20 μl, of each cell suspension were used for the determination of β-galactosidase activity and for the determination of total cellular protein (to normalise results), respectively.
In the β-gal assay, 100 μl of the substrate reagent was added to 50 μl of the cell suspension in a white 96-well microplate (Coming Costar). […]

[3] = tested on: Panc-1 cells; assay: Transfection of Panc-1 cells with LMDs (liposome:mu:DNA), β-galactosidase reporter assay; conditions: LMDs composed entirely of DOTAP or DOTAP-analogue liposomes, FIG. 19
Procedure: as §1, §2, §3
Panc-1 cells were maintained in RPMI/10% FCS/1% penicillin-streptomycin (Gibco™, Invitrogen Corporation, Paisley, Scotland, UK) at 37° C./5% CO2 in a humidified atmosphere. Twenty-four hours prior to transfection, 30 000 cells per well were seeded in 48 well microtitre plates (Corning Costar, Merck Ltd., Lutterworth, Leicestershire, UK) in 500 μl medium. As a control, plasmid DNA (0.5 μg in 200 μl medium) was added to a well. As a positive control, 1.5 μl Transfast™ (Promega Corporation, Madison, Wis., USA; prepared according to the supplier's protocol) in 200 μl medium was complexed with plasmid DNA (0.5 μg) and added to a well. 5 μl (0.5 μg DNA) of LMD formulation was added to each well. All experiments were performed in quadruplicate. The plate was swirled for 30 s, and incubated for 1 h at 37° C. Medium was then removed, and 500 μl of fresh medium was added. The cells were incubated at 37° C. for a further 24 h.
Medium was aspirated from the wells and the cell layer was washed with phosphate buffered saline (PBS) (Gibco™). The cells of each well were lysed in 150 μl lysis reagent (prepared according to the supplier's protocol; β-Gal Reporter Gene Assay, Roche Diagnostics GmbH, D-68305 Mannheim, Germany) at room temperature for 30 min. […]

## CCCCCCCC/C=C\CCCCCCCC(=O)OCC(C[N+](C)(C)C)OC(=O)CCCCCCC/C=C\CCCCCCCC (stereo not drawn) [DOTAP]
[1]
  In vitro transfection, overall statement: transfect worse than CDAN:DOPE, 1:1 liposomes; also recorded: generally poor
[2]
  Transfection (β-galactosidase activity): transfect similarly
[3]
  Transfection (β-galactosidase activity): transfect less well than the positive control Transfast
